Data reported in patent US20210221866A1, “PROTEASE-RESISTANT LIPIDATED GLP-1 ANALOGS” (MEDIMMUNE LIMITED, priority 2015, published 2021).
Where two headings read alike, the source gives them in different places. Numbered stars: 1 amine (or outer) side, 2 acyl side, 3 side chain; on linkers, the order of the positions; unused ones are H or OH. Square brackets hold non-standard residues; d marks the D form. Side chains are listed from the residue outwards. Peptide text beside a SMILES is read from it. * marks the point of attachment. C18 diacid = O=C(O)CCCCCCCCCCCCCCCCC(=O)*; γGlu = O=C(O)[C@H](CCC(=O)[*:2])N[*:1]; αMeF = C[C@](N)(Cc1ccccc1)C(=O)O; αMeK = C[C@](N)(CCCCN)C(=O)O; αMeS = C[C@](N)(CO)C(=O)O; AEEA = NCCOCCOCC(=O)O; Aib = CC(C)(N)C(=O)O

Molecular target: T1, human GLP-1 receptor (GLP-1R) (Homo sapiens, UniProt P43220)
T1 construct: expressed in transfected cells; host or cells: HEK293 cells or CHO cells
T1 sequence (P43220 24-463): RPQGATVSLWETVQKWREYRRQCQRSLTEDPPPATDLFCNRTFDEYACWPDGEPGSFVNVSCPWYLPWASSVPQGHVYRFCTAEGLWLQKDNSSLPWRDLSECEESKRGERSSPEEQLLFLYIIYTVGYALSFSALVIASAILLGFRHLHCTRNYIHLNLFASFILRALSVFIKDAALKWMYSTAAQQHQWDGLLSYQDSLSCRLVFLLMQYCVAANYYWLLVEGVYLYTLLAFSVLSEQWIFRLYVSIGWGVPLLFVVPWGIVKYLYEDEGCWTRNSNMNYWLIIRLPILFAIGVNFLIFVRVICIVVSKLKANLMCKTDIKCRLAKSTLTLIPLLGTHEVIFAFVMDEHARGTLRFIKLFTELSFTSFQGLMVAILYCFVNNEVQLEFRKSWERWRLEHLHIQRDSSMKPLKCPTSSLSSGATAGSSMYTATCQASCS
Test: cAMP assay, human GLP-1R cells
Format: cell-based
Conditions: cAMP activity
Protocol: Sample dilutions are made in duplicate.
A frozen cryo-vial of cells expressing the receptor of interest is thawed rapidly in a water-bath, transferred to pre-warmed assay buffer and spun at 240×g for 5 minutes. Cells are re-suspended in assay buffer at a batch-dependent optimized concentration (e.g. hGCGR cells at 2×10^5 cells/ml, hGLP-1R and hGIPR cells at 1×10^5 cells/ml).
To this, 5 μL cell suspension is added and the plates incubated at room temperature for 30 minutes.
cAMP levels are measured using a commercially available cAMP dynamic 2 HTRF kit (Cisbio, Cat #62AM4PEJ), following the two step protocol as per manufacturer's recommendations. In brief; anti-cAMP cryptate (donor fluorophore) and cAMP-d2 (acceptor fluorophore) are made up separately by diluting each 1/20 in conjugate & lysis buffer provided in the kit. 5 μL anti-cAMP cryptate is added to wells of the assay plate, and 5 μL cAMP-d2 is added to wells except non-specific binding (NSB) wells, to which conjugate and lysis buffer are added. […] EC50 values of the synthetic peptides determined in cAMP assays are then determined.
Data is transformed to % Delta F as described in the manufacturer's guidelines and analyzed by 4-parameter logistic fit to determine EC50 values. […] To compare the balance of activities at the GLP-1R and GCGR between different peptides and across different conditions, these can be correlated, where the EC50's are related to those of comparator peptides.

[1] = mean of n1 and n2, read-out: Mean pM GLP-1R
[2] = second determination (n2), read-out: Primary assay EC50 GLP-1R n2

`CC[C@H](C)[C@H](NC(=O)[C@](C)(Cc1ccccc1)NC(=O)[C@H](CCC(=O)O)NC(=O)[C@](C)(CCCCN)NC(=O)[C@H](C)NC(=O)[C@H](C)NC(=O)[C@H](CCCCNC(=O)COCCOCCNC(=O)COCCOCCNC(=O)CC[C@H](NC(=O)CCCCCCCCCCCCCCCCC(=O)O)C(=O)O)NC(=O)CNC(=O)[C@H](CCC(=O)O)NC(=O)[C@H](CC(C)C)NC(=O)[C@](C)(Cc1ccccc1)NC(=O)[C@H](CO)NC(=O)[C@](C)(CO)NC(=O)[C@@H](NC(=O)[C@H](CC(=O)O)NC(=O)[C@H](CO)NC(=O)[C@@H](NC(=O)[C@](C)(Cc1ccccc1)NC(=O)[C@H](CO)NC(=O)CNC(=O)[C@H](CCC(=O)O)NC(=O)C(C)(C)NC(=O)[C@@H](N)Cc1c[nH]cn1)[C@@H](C)O)C(C)C)C(=O)N[C@@H](C)C(=O)N[C@@](C)(Cc1ccccc1)C(=O)N[C@H](C(=O)N[C@H](C(=O)N[C@@](C)(CCCCN)C(=O)NCC(=O)NCC(N)=O)C(C)C)C(C)C` [compound 112] (H-H[Aib]EGS[αMeF]TSDV[αMeS]S[αMeF]LEGK([AEEA-AEEA-γGlu-C18 diacid])AA[αMeK]E[αMeF]IA[αMeF]VV[αMeK]GG-NH2; N-terminus assumed) was tested. Which EC50 [1] did it give?
Its EC50 is 6 pM.

How did the EC50 [1] turn out when `CC[C@H](C)[C@H](NC(=O)[C@](C)(Cc1ccccc1)NC(=O)[C@H](CCC(=O)O)NC(=O)[C@](C)(CCCCN)NC(=O)[C@H](C)NC(=O)[C@H](C)NC(=O)[C@H](CCC(=O)O)NC(=O)[C@H](CCCCNC(=O)COCCOCCNC(=O)COCCOCCNC(=O)CC[C@H](NC(=O)CCCCCCCCCCCCCCCCC(=O)O)C(=O)O)NC(=O)[C@H](CCC(=O)O)NC(=O)[C@H](CC(C)C)NC(=O)[C@](C)(Cc1ccccc1)NC(=O)[C@H](CO)NC(=O)[C@](C)(CO)NC(=O)[C@@H](NC(=O)[C@H](CC(=O)O)NC(=O)[C@H](CO)NC(=O)[C@@H](NC(=O)[C@](C)(Cc1ccccc1)NC(=O)[C@H](CO)NC(=O)CNC(=O)[C@H](CCC(=O)O)NC(=O)C(C)(C)NC(=O)[C@@H](N)Cc1c[nH]cn1)[C@@H](C)O)C(C)C)C(=O)N[C@@H](C)C(=O)N[C@@](C)(Cc1ccccc1)C(=O)N[C@H](C(=O)N[C@H](C(=O)N[C@@](C)(CCCCN)C(=O)NCC(=O)NCC(N)=O)C(C)C)C(C)C` [compound 113] (H-H[Aib]EGS[αMeF]TSDV[αMeS]S[αMeF]LEK([AEEA-AEEA-γGlu-C18 diacid])EAA[αMeK]E[αMeF]IA[αMeF]VV[αMeK]GG-NH2; N-terminus assumed) was run?
The EC50 was 18 pM.

And the EC50 [2]?
The EC50 was 17.4 pM.

Which EC50 [1] does the source give for `CC[C@H](C)[C@H](NC(=O)[C@](C)(Cc1ccccc1)NC(=O)[C@H](CCC(=O)O)NC(=O)[C@](C)(CCCCN)NC(=O)[C@H](C)NC(=O)[C@H](C)NC(=O)[C@H](CCC(=O)O)NC(=O)CNC(=O)[C@H](CCC(=O)O)NC(=O)[C@H](CC(C)C)NC(=O)[C@H](CCCCNC(=O)COCCOCCNC(=O)COCCOCCNC(=O)CC[C@H](NC(=O)CCCCCCCCCCCCCCCCC(=O)O)C(=O)O)NC(=O)[C@H](CO)NC(=O)[C@](C)(CO)NC(=O)[C@@H](NC(=O)[C@H](CC(=O)O)NC(=O)[C@H](CO)NC(=O)[C@@H](NC(=O)[C@](C)(Cc1ccccc1)NC(=O)[C@H](CO)NC(=O)CNC(=O)[C@H](CCC(=O)O)NC(=O)C(C)(C)NC(=O)[C@@H](N)Cc1c[nH]cn1)[C@@H](C)O)C(C)C)C(=O)N[C@@H](C)C(=O)N[C@@](C)(Cc1ccccc1)C(=O)N[C@H](C(=O)N[C@H](C(=O)N[C@@](C)(CCCCN)C(=O)NCC(=O)NCC(N)=O)C(C)C)C(C)C` [compound 116] here?
The EC50 was 9 pM.

What about the EC50 [2] of the same compound?
Its EC50 is 9.12 pM.

`CCCCCCCCCCCC(=O)N[C@@H](CCC(=O)N[C@@H](CCC(=O)NCCCC[C@H](NC(=O)[C@H](C)NC(=O)[C@H](C)NC(=O)[C@H](CCC(=O)O)NC(=O)CNC(=O)[C@H](CCC(=O)O)NC(=O)[C@H](CC(C)C)NC(=O)[C@](C)(Cc1ccccc1)NC(=O)[C@H](CO)NC(=O)[C@](C)(CO)NC(=O)[C@@H](NC(=O)[C@H](CC(=O)O)NC(=O)[C@H](CO)NC(=O)[C@@H](NC(=O)[C@](C)(Cc1ccccc1)NC(=O)[C@H](CO)NC(=O)CNC(=O)[C@H](CCC(=O)O)NC(=O)C(C)(C)NC(=O)[C@@H](N)Cc1c[nH]cn1)[C@@H](C)O)C(C)C)C(=O)N[C@@H](CCC(=O)O)C(=O)N[C@@](C)(Cc1ccccc1)C(=O)N[C@H](C(=O)N[C@@H](C)C(=O)N[C@@](C)(Cc1ccccc1)C(=O)N[C@H](C(=O)N[C@H](C(=O)N[C@@](C)(CCCCN)C(=O)NCC(=O)NCC(N)=O)C(C)C)C(C)C)[C@@H](C)CC)C(=O)O)C(=O)O` [compound 129] was tested. Which EC50 [1] did it give?
Its EC50 is 11.5 pM.

For `CC[C@H](C)[C@H](NC(=O)[C@](C)(Cc1ccccc1)NC(=O)[C@H](CCC(=O)O)NC(=O)[C@H](CCCCNC(=O)CC[C@H](NC(=O)CC[C@H](NC(=O)CCCCCCCCCCCCCCCCC(=O)O)C(=O)O)C(=O)O)NC(=O)[C@H](C)NC(=O)[C@H](C)NC(=O)[C@H](CCC(=O)O)NC(=O)CNC(=O)[C@H](CCC(=O)O)NC(=O)[C@H](CC(C)C)NC(=O)[C@](C)(Cc1ccccc1)NC(=O)[C@H](CO)NC(=O)[C@](C)(CO)NC(=O)[C@@H](NC(=O)[C@H](CC(=O)O)NC(=O)[C@H](CO)NC(=O)[C@@H](NC(=O)[C@](C)(Cc1ccccc1)NC(=O)[C@H](CO)NC(=O)CNC(=O)[C@H](CCC(=O)O)NC(=O)C(C)(C)NC(=O)[C@@H](N)Cc1c[nH]cn1)[C@@H](C)O)C(C)C)C(=O)N[C@@H](C)C(=O)N[C@@](C)(Cc1ccccc1)C(=O)N[C@H](C(=O)N[C@H](C(=O)N[C@@](C)(CCCCN)C(=O)NCC(=O)NCC(N)=O)C(C)C)C(C)C` [compound 156], which EC50 [1] is on record?
The EC50 was 105 pM.

Which EC50 [1] does the source give for `CC[C@H](C)[C@H](NC(=O)[C@](C)(Cc1ccccc1)NC(=O)[C@H](CCC(=O)O)NC(=O)[C@H](CCCCNC(=O)CC[C@H](NC(=O)CC[C@H](NC(=O)CC[C@H](NC(=O)CCCCCCCCCCCCCCCCC(=O)O)C(=O)O)C(=O)O)C(=O)O)NC(=O)[C@H](C)NC(=O)[C@H](C)NC(=O)[C@H](CCC(=O)O)NC(=O)CNC(=O)[C@H](CCC(=O)O)NC(=O)[C@H](CC(C)C)NC(=O)[C@](C)(Cc1ccccc1)NC(=O)[C@H](CO)NC(=O)[C@](C)(CO)NC(=O)[C@@H](NC(=O)[C@H](CC(=O)O)NC(=O)[C@H](CO)NC(=O)[C@@H](NC(=O)[C@](C)(Cc1ccccc1)NC(=O)[C@H](CO)NC(=O)CNC(=O)[C@H](CCC(=O)O)NC(=O)C(C)(C)NC(=O)[C@@H](N)Cc1c[nH]cn1)[C@@H](C)O)C(C)C)C(=O)N[C@@H](C)C(=O)N[C@@](C)(Cc1ccccc1)C(=O)N[C@H](C(=O)N[C@H](C(=O)N[C@@](C)(CCCCN)C(=O)NCC(=O)NCC(N)=O)C(C)C)C(C)C` [compound 157] here?
Its EC50 is 227 pM.

Which results are given for `CC[C@H](C)[C@H](NC(=O)[C@](C)(Cc1ccccc1)NC(=O)[C@H](CCC(=O)O)NC(=O)[C@H](CCCCNC(=O)COCCOCCNC(=O)COCCOCCNC(=O)CCCCCCCCCCCCCCCCC(=O)O)NC(=O)[C@H](C)NC(=O)[C@H](C)NC(=O)[C@H](CCC(=O)O)NC(=O)CNC(=O)[C@H](CCC(=O)O)NC(=O)[C@H](CC(C)C)NC(=O)[C@](C)(Cc1ccccc1)NC(=O)[C@H](CO)NC(=O)[C@](C)(CO)NC(=O)[C@@H](NC(=O)[C@H](CC(=O)O)NC(=O)[C@H](CO)NC(=O)[C@@H](NC(=O)[C@](C)(Cc1ccccc1)NC(=O)[C@H](CO)NC(=O)CNC(=O)[C@H](CCC(=O)O)NC(=O)C(C)(C)NC(=O)[C@@H](N)Cc1c[nH]cn1)[C@@H](C)O)C(C)C)C(=O)N[C@@H](C)C(=O)N[C@@](C)(Cc1ccccc1)C(=O)N[C@H](C(=O)N[C@H](C(=O)N[C@@](C)(CCCCN)C(=O)NCC(=O)NCC(N)=O)C(C)C)C(C)C` [compound 162]?
EC50 [1]: 54 pM; EC50 [2]: 55 pM
